Measured values as given in patent publication US10287301B2 (Achillion Pharmaceuticals, Inc., priority 2015, dated 2019).

biological target: Human Factor D (Homo sapiens (Human), UniProt P00746); assay: Human Factor D Assay; assay type: biochemical; details: not given
In short: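 Thioesterase activity monitored with Z-L-Lys-SBzl plus Ellman's reagent (DTNB), each 100 μM final, after 5 min room-temperature compound preincubation of 80 nM human serum Factor D in pH 7.5 Tris (50 mM)/1M NaCl.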

Chain of Human Factor D (P00746 26-253): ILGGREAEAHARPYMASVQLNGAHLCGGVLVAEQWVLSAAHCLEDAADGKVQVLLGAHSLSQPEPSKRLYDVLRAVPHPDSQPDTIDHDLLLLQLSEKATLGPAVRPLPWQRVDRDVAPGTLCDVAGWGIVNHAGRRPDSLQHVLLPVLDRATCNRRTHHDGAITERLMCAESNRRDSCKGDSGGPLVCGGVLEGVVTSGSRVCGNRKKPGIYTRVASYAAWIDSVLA

SMILES | IC50 [µM]
NC(=O)c1nn(CC(=O)N2C[C@H](F)C[C@H]2C(=O)Nc2ncc(Br)cn2)c2ccc(-c3ccnnc3)cc12 [Compound 109, 1-(2-((2S,4R)-2-(5-bromopyrimidin-2-ylcarbamoyl)-4-fluoropyrrolidin-1-yl)-2-oxoethyl)-5-(pyridazin-4-yl)-1H-indazole-3-carboxamide] | 1 to 10

same assay, conditions: Human Factor D 80 nM, substrate Z-L-Lys-SBzl; read-out: IC50

SMILES | IC50 [µM]
CC(=O)c1cn(CC(=O)N2C[C@H](F)C[C@H]2C(=O)NC2CCCc3nc(-c4ccc(F)cc4)sc32)c2ccc(-c3ccnnc3)cc12 (stereo partly drawn) [Compound 106, (2S,4R)-1-(2-(3-acetyl-5-(pyridazin-4-yl)-1H-indol-1-yl)acetyl)-4-fluoro-N-(2-(4-fluorophenyl)-4,5,6,7-tetrahydrobenzo[d]thiazol-7-yl)pyrrolidine-2-carboxamide] | > 10
NC(=O)c1nn(CC(=O)N2C[C@H](F)C[C@H]2C(=O)NC2CCCc3nc(-c4ccc(F)cc4)sc32)c2ccc(-c3ccnnc3)cc12 (stereo partly drawn) [Compound 107, 1-(2-((2S,4R)-4-fluoro-2-(2-(4-fluorophenyl)-4,5,6,7-tetrahydrobenzo[d]thiazol-7-ylcarbamoyl)pyrrolidin-1-yl)-2-oxoethyl)-5-(pyridazin-4-yl)-1H-indazole-3-carboxamide] | > 10
CC(=O)c1cn(CC(=O)N2C[C@H](F)C[C@H]2C(=O)Nc2ccc3ccccc3c2)c2ccc(-c3ccnnc3)cc12 [Compound 110, (2S,4R)-1-(2-(3-acetyl-5-(pyridazin-4-yl)-1H-indol-1-yl)acetyl)-4-fluoro-N-(naphthalen-2-yl)pyrrolidine-2-carboxamide] | > 10
NC(=O)c1nn(CC(=O)N2C[C@H](F)C[C@H]2C(=O)Nc2noc3cc(C(F)(F)F)ccc23)c2ccc(-c3ccnnc3)cc12 [Compound 112, 1-(2-((2S,4R)-4-fluoro-2-(6-(trifluoromethyl)benzo[d]isoxazol-3-ylcarbamoyl)pyrrolidin-1-yl)-2-oxoethyl)-5-(pyridazin-4-yl)-1H-indazole-3-carboxamide] | > 10
Cc1cc(NC(=O)[C@@H]2C[C@@H](F)CN2C(=O)Cn2nc(C(N)=O)c3cc(-c4ccnnc4)ccc32)n2nc(C(F)(F)F)nc2n1 [Compound 113, 1-(2-((2S,4R)-4-fluoro-2-(5-methyl-2-(trifluoromethyl)-[1,2,4]triazolo[1,5-a]pyrimidin-7-ylcarbamoyl)pyrrolidin-1-yl)-2-oxoethyl)-5-(pyridazin-4-yl)-1H-indazole-3-carboxamide] | > 10
NC(=O)c1nn(CC(=O)N2C[C@H](F)C[C@H]2C(=O)Nc2nnc(-c3ccccc3Cl)s2)c2ccc(-c3ccnnc3)cc12 [Compound 115, 1-(2-((2S,4R)-2-(5-(2-chlorophenyl)-1,3,4-thiadiazol-2-ylcarbamoyl)-4-fluoropyrrolidin-1-yl)-2-oxoethyl)-5-(pyridazin-4-yl)-1H-indazole-3-carboxamide] | > 10
CC(=O)c1cn(CC(=O)N2C[C@H](F)C[C@H]2C(=O)Nc2nnc(-c3ccc(Cl)c(Cl)c3)s2)c2ccc(-c3ccnnc3)cc12 [Compound 117, (2S,4R)-1-(2-(3-acetyl-5-(pyridazin-4-yl)-1H-indol-1-yl)acetyl)-N-(5-(3,4-dichlorophenyl)-1,3,4-thiadiazol-2-yl)-4-fluoropyrrolidine-2-carboxamide] | > 10
CC(=O)Nc1ncc(-c2ccc3c(c2)c(C(C)=O)cn3CC(=O)N2C[C@H](F)C[C@H]2C(=O)Nc2cccc(Br)n2)cn1 [Compound 118, (2S,4R)-1-(2-(5-(2-acetamidopyrimidin-5-yl)-3-acetyl-1H-indol-1-yl)acetyl)-N-(6-bromopyridin-2-yl)-4-fluoropyrrolidine-2-carboxamide] | < 1
CC(=O)c1cn(CC(=O)N2C[C@H](F)C[C@H]2C(=O)Nc2cccc(Br)n2)c2ccc(-c3cccc(Cl)c3)cc12 [Compound 119, (2S,4R)-1-(2-(3-acetyl-5-(3-chlorophenyl)-1H-indol-1-yl)acetyl)-N-(6-bromopyridin-2-yl)-4-fluoropyrrolidine-2-carboxamide] | < 1
